Data on 26 molecules can be found in patent US11161815B2, “Hydrocarbylsulfonyl-substituted pyridines and their use in the treatment of cancer” (Oblique Therapeutics AB, priority 2017, dated 2021).

Molecules are shown by their SMILES.

The target in assay [1] is recombinant thioredoxin reductase 1 (TrxR1) (Homo sapiens (Human), UniProt Q16881). Kind of assay: Inhibition of recombinant TrxR1 (DTNB assay). Particulars: 30 nM TrxR1, 250 μM NADPH, 15 minutes incubation, read-out: TrxR Assay IC50. It counts as biochemical. The procedure: (§1) Small molecule inhibition of recombinant thioredoxin reductase 1 (TrxR1) and gluthathione reductase (GR) was examined in 96-well plate format. 30 nM TrxR1 was incubated in the presence of 250 μM NADPH, 0.1 mg/ml BSA, and various concentrations of compound (1% DMSO final) in 50 mM Tris (pH 7.5) and 2 mM EDTA buffer for 15 minutes. Following the incubation period, 2 mM DTNB was added to each well and the change in O.D. at 412 nm was followed. Percent activity was determined using DMSO vehicle and no TrxR1 (blank) controls. 2 nM GR was incubated in the presence of 250 μM NADPH, 0.1 mg/ml BSA, and various concentrations of compounds (1% DMSO final) in 50 mM Tris (pH 7.5) and 2 mM EDTA buffer for 15 minutes. Following the incubation period, 1 mM GSSG was added to each well and the change in O.D. at 340 nm was followed. Percent activity was determined using DMSO vehicle and no GR (blank) controls.

Assay [2] addresses gluthathione reductase (GR) (Homo sapiens (Human), UniProt P00390). The assay is described as follows: Inhibition of recombinant GR (GSSG assay). It counts as biochemical. The following applies: 2 nM GR, 250 μM NADPH, 15 minutes incubation. The procedure: as §1
The test system of another assay is MDA-MB-231 cells. Kind of assay: Breast cancer cell viability assay (Alamar Blue). It counts as cell-based. The following applies: Homo sapiens, 72 hrs, 10% FBS media containing 25 nM selenite. The procedure: MDA-MB-231 cells were plated 2000 cells/well in 96-well black optical plates in the presence of 10% FBS media containing 25 nM selenite. The following day cells were treated with various concentrations of compounds (0.1% DMSO final) and incubated for 72 hrs. After the incubation Alamar Blue reagent was added to each well and incubated for additional 3 hrs. Fluorescence was read ex:530 nm/em:590 nm, and percent of viability was determined using DMSO vehicle and no cell (blank) controls.
On the technique in general: Resazurin is reduced to fluorescent resorufin, in cell work by metabolically active cells.

Another assay concerns U-87 MG. The assay is described as follows: Cancer cell viability assay (MTT), U-87 MG. It counts as cell-based. Particulars: Homo sapiens, 72 hrs, 10% FBS media. The procedure:
(§2) Breast cancer and glioblastoma cell lines were plated 4000 cells/well in 96-well plates in the presence of 10% FBS media. The following day cells were treated with various concentrations of the example compounds (0.1% DMSO final) and incubated for 72 hrs. After the incubation An MTT assay was performed to access cell viability. Percent of viability was determined using DMSO vehicle and no cell (blank) controls.

The test system of a further assay is MDA-MB-231. Kind of assay: Cancer cell viability assay (MTT), MDA-MB-231. It counts as cell-based. The following applies: Homo sapiens, 72 hrs, 10% FBS media. Here is the method: as §2
The subject of another assay is MDA-MB-468. Kind of assay: Cancer cell viability assay (MTT), MDA-MB-468. It counts as cell-based. The following applies: Homo sapiens, 72 hrs, 10% FBS media. Here is the method: as §2
The test system of another assay is FaDu cells. Kind of assay: Head and neck cancer cell viability assay (Cell-Quanti Blue). It counts as cell-based. The following applies: Homo sapiens, 72 hrs, 10% FBS media containing 25 nM selenite. The procedure: FaDu cells were plated 2000 cells/well in 96-well black optical plates in the presence of 10% FBS media containing 25 nM selenite. The following day cells were treated with various concentrations of the compound of Example 1 (0.1% DMSO final) and incubated for 72 hrs. After the incubation Cell-Quanti Blue reagent was added to each well and incubated for additional 3 hrs. Fluorescence was read ex:530 nm/em:590 nm, and percent of viability was determined using DMSO vehicle and no cell (blank) controls.

recombinant thioredoxin reductase 1 (TrxR1), sequence (Q16881 151-649): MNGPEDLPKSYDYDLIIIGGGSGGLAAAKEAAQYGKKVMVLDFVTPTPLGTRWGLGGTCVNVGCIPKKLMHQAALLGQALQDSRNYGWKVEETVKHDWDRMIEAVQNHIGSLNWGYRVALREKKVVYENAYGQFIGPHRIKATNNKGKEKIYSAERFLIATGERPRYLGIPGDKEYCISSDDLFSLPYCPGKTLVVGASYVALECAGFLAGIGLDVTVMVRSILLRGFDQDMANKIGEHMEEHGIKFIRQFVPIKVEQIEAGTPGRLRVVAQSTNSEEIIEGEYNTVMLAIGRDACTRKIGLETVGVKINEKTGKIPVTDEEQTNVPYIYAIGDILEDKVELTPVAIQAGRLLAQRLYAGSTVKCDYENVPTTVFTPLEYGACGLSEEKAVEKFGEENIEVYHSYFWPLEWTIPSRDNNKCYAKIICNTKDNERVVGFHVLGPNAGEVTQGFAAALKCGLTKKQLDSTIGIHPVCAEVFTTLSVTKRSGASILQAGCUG
gluthathione reductase (GR), sequence (P00390 44-522): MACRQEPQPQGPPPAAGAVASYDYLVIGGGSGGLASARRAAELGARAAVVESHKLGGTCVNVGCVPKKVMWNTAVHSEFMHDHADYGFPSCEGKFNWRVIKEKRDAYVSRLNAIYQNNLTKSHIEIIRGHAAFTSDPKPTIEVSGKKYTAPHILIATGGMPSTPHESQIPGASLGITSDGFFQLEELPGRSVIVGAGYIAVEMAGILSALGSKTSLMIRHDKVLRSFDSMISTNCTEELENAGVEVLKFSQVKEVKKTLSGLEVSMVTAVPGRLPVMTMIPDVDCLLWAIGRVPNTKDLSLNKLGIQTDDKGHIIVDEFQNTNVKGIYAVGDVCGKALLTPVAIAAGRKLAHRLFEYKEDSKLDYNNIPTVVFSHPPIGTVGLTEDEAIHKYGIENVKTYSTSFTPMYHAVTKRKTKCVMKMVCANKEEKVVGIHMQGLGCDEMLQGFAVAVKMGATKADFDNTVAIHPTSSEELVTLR

As for `COC(=O)CCS(=O)(=O)c1nc(OC)ccc1[N+](=O)[O-]` [Example 16, methyl 3-((6-methoxy-3-nitropyridin-2-yl)sulfonyl)propanoate], the 50% inhibitory concentration (IC50) (usually the point on the concentration scale where inhibition reaches its midpoint) is 0.0606 µM in assay [1]; more than 100 µM in assay [2]; 8.09 µM in the assay with MDA-MB-231 cells; 5.23 µM with U-87 MG; 4.9 µM with MDA-MB-231; 3.9 µM with MDA-MB-468.

In the case of `CN(C)c1ccc([N+](=O)[O-])c(S(=O)(=O)C2CCCC2)n1` [Example 8, 2-Cyclopentylsulfonyl-6-dimethylamino-3-nitropyridine], the 50% inhibitory concentration (IC50) is 0.188 µM in assay [1], more than 100 µM in assay [2] and 6.97 µM in the assay with FaDu cells.

Consider `COc1ccc([N+](=O)[O-])c(S(=O)(=O)Cc2ccc(OC(F)(F)F)cc2)n1` [Example 25, 6-methoxy-3-nitro-2-((4-(trifluoromethoxy)benzyl)sulfonyl)pyridine], for which the results for the IC50 in assay [1] and in assay [2] were 0.00103 µM and more than 100 µM, respectively.

As to `COc1ccc([N+](=O)[O-])c(S(=O)(=O)C(C)C)n1` [Example 11, 2-(isopropylsulfonyl)-6-methoxy-3-nitropyridine], the IC50 was 0.204 µM in assay [1]; more than 100 µM in assay [2]; 6 µM in the assay with U-87 MG; 7.1 µM in the assay on MDA-MB-231; 4.9 µM in the assay with MDA-MB-468.

In the case of `COc1ccc([N+](=O)[O-])c(S(=O)(=O)Cc2ccc(C)cc2)n1` [Example 23, 6-methoxy-2-((4-methylbenzyl)sulfonyl)-3-nitropyridine], the IC50 was 0.0145 µM in assay [1] and more than 100 µM in assay [2].

Consider `COc1ccc([N+](=O)[O-])c(S(=O)(=O)CCc2ccccc2)n1` [Example 26, 6-methoxy-3-nitro-2-(phenethylsulfonyl)pyridine], for which the IC50 is 0.0188 µM in assay [1], more than 100 µM in assay [2] and 5.22 µM with MDA-MB-231 cells.

Regarding `COc1ccc([N+](=O)[O-])c(S(=O)(=O)Cc2ccc(Cl)cc2)n1` [Example 21, 2-((4-chlorobenzyl)sulfonyl)-6-methoxy-3-nitropyridine], the IC50 in assay [1] was 0.00435 µM; in assay [2] it was more than 100 µM; in the assay with MDA-MB-231 cells, 4.1 µM.

`COc1ccc([N+](=O)[O-])c(S(=O)(=O)CCCO)n1` [Example 17, 3-((6-methoxy-3-nitropyridin-2-yl)sulfonyl)propan-1-ol]: the IC50 in assay [1] was 0.103 µM; in assay [2] it was more than 100 µM; with MDA-MB-231 cells, 12.5 µM; in the assay with U-87 MG, 19.5 µM; in the assay on MDA-MB-231, more than 33 µM; with MDA-MB-468, 9.77 µM.

With `COc1ccc([N+](=O)[O-])c(S(=O)(=O)Cc2ccccc2Cl)n1` [Example 19, 2-((2-chlorobenzyl)sulfonyl)-6-methoxy-3-nitropyridine], the IC50 was 0.0076 µM in assay [1], more than 100 µM in assay [2] and 1.8 µM in the assay on MDA-MB-231 cells.

`COc1ccc(CS(=O)(=O)c2nc(OC)ccc2[N+](=O)[O-])cc1` [Example 24, 6-methoxy-2-((4-methoxybenzyl)sulfonyl)-3-nitropyridine]: the IC50 in assay [1] was 0.0253 µM; in assay [2], more than 100 µM; in the assay on MDA-MB-231 cells, 3.5 µM.

In the case of `COc1ccc([N+](=O)[O-])c(S(=O)(=O)Cc2ccco2)n1` [Example 29, 2-((furan-2-ylmethyl)sulfonyl)-6-methoxy-3-nitropyridine], the IC50 was 0.00678 µM in assay [1], more than 100 µM in assay [2] and 4.36 µM in the assay on MDA-MB-231 cells.

Consider `CCCCCCCC[S+]([O-])c1nc(OC)ccc1[N+](=O)[O-]` (stereo not shown) [Example 33, 6-Methoxy-3-nitro-2-octylsulfinyl-pyridine], for which the IC50 was 0.5 µM in assay [1]; 85.4 µM in assay [2]; 9.25 µM in the assay on U-87 MG; 3.84 µM with MDA-MB-231; 1.85 µM in the assay on MDA-MB-468.

Regarding `COc1ccc([N+](=O)[O-])c(S(=O)(=O)CCOc2ccccc2)n1` [Example 28, 6-methoxy-3-nitro-2-((2-phenoxyethyl)sulfonyl)pyridine], the IC50 was 0.0203 µM in assay [1], more than 100 µM in assay [2] and 5.24 µM in the assay on MDA-MB-231 cells.

Turning to `CC[S+]([O-])c1nc(OC)ccc1[N+](=O)[O-]` (stereo not shown) [Example 31, 2-Ethanesulfinyl-6-methoxy-3-nitro-pyridine], the IC50 in assay [1] was 0.131 µM; in assay [2], more than 100 µM; in the assay on U-87 MG, 6.22 µM; in the assay with MDA-MB-231 it was 3.51 µM; with MDA-MB-468, 3.23 µM.

As for `CCCCCCCCS(=O)(=O)c1nc(OC)ccc1[N+](=O)[O-]` [Example 12, 6-methoxy-3-nitro-2-(octylsulfonyl)pyridine], the IC50 in assay [1] was 0.0123 µM; in assay [2], more than 100 µM; with MDA-MB-231 cells it was 4.51 µM.

For the molecule `COc1ccc([N+](=O)[O-])c(S(=O)(=O)CCCCC(F)(F)F)n1` [Example 14, 6-methoxy-3-nitro-2-((5,5,5-trifluoropentyl)sulfonyl)pyridine], the IC50 in assay [1] is 0.0969 µM; in assay [2], more than 100 µM; with MDA-MB-231 cells, 5.6 µM; in the assay on U-87 MG, 7.52 µM; in the assay on MDA-MB-231, 7.73 µM; with MDA-MB-468, 3.88 µM.

Take `COc1ccc([N+](=O)[O-])c(S(=O)(=O)Cc2cccc(Cl)c2)n1` [Example 20, 2-((3-chlorobenzyl)sulfonyl)-6-methoxy-3-nitropyridine]: the half-inhibitory concentration (IC50) in assay [1] was 0.00716 µM; in assay [2], more than 100 µM; with MDA-MB-231 cells, 3.2 µM.

For the molecule `COc1ccc([N+](=O)[O-])c(S(=O)(=O)CCN2CCCCC2)n1` [Example 18, 6-methoxy-3-nitro-2-((2-(piperidin-1-yl)ethyl)sulfonyl)pyridine], the IC50 was 0.00152 µM in assay [1] and more than 100 µM in assay [2].

In the case of `COc1ccc([N+](=O)[O-])c(S(=O)(=O)CCc2cnccn2)n1` [Example 30, 2-(2-((6-methoxy-3-nitropyridin-2-yl)sulfonyl)ethyl)pyrazine], the IC50 in assay [1] is 0.0669 µM; in assay [2] it was more than 100 µM; in the assay with MDA-MB-231 cells, 2.66 µM.

For `COc1ccc([N+](=O)[O-])c([S+]([O-])Cc2ccccc2)n1` (stereo not shown) [Example 32, 2-benzylsulfinyl-6-methoxy-3-nitro-pyridine], the IC50 in assay [1] worked out at 0.0765 µM; in the assay with U-87 MG, 2.48 µM; in the assay on MDA-MB-231 it was 1.42 µM; in the assay with MDA-MB-468, 0.64 µM.

Consider `COc1ccc([N+](=O)[O-])c(S(=O)(=O)Cc2ccc(F)cc2)n1` [Example 22, 2-((4-fluorobenzyl)sulfonyl)-6-methoxy-3-nitropyridine], for which the IC50 in assay [1] was 0.00505 µM; in assay [2], more than 100 µM; in the assay with MDA-MB-231 cells it was 1.85 µM.

In the assay with FaDu cells, `CN(C)c1ccc([N+](=O)[O-])c(S(=O)(=O)Cc2ccccc2)n1` [Example 7, 2-Benzylsulfonyl-6-dimethylamino-3-nitropyridine] yielded an IC50 of 2.88 µM.

Take `COc1ccc([N+](=O)[O-])c(S(=O)(=O)CCNC(C)=O)n1` [Example 15, N-(2-((6-methoxy-3-nitropyridin-2-yl)sulfonyl)ethyl)acetamide]: the IC50 is 0.122 µM in assay [1]; more than 100 µM in assay [2]; 11.4 µM in the assay on MDA-MB-231 cells; 16.3 µM in the assay with U-87 MG; 18.4 µM with MDA-MB-231; 5.47 µM in the assay on MDA-MB-468.

As to `COc1ccc([N+](=O)[O-])c(S(=O)(=O)CCCc2ccccc2)n1` [Example 27, 6-methoxy-3-nitro-2-((3-phenylpropyl)sulfonyl)pyridine], the IC50 was 0.00733 µM in assay [1], more than 100 µM in assay [2] and 7.13 µM in the assay with MDA-MB-231 cells.

Consider `CCS(=O)(=O)c1nc(OC)ccc1[N+](=O)[O-]` [Example 10, 2-(ethylsulfonyl)-6-methoxy-3-nitropyridine], for which the IC50 in assay [1] was 0.124 µM; in assay [2], more than 100 µM; in the assay on MDA-MB-231 cells, 2.95 µM; with U-87 MG, 5.95 µM; with MDA-MB-231, 5.12 µM; with MDA-MB-468 it was 3.16 µM.

Take `COc1ccc([N+](=O)[O-])c(S(=O)(=O)C2CC2)n1` [Example 13, 2-(cyclopropylsulfonyl)-6-methoxy-3-nitropyridine]: the IC50 in assay [1] is 0.16 µM; in assay [2], more than 100 µM; with U-87 MG it was 6.92 µM; with MDA-MB-231 it was 5.91 µM; in the assay with MDA-MB-468 it was 4.68 µM.
